Measurements reported in PMC6267282, “Targeting the DNA Repair Endonuclease ERCC1-XPF with Green Tea Polyphenol Epigallocatechin-3-Gallate (EGCG) and Its Prodrug to Enhance Cisplatin Efficacy in Human Cancer Cells” (Nutrients, 2018).
pIC50: −log10 of the molar value.

Biological target: T1, ERCC1/XPF (XPF endonuclease) (Homo sapiens, UniProt Q92889)
T1 construct: gene ERCC4; with ERCC1
Assay: fluorescence-based DNA incision assay with purified ERCC1/XPF
Format: biochemical

T1 sequence (Q92889 whole entry): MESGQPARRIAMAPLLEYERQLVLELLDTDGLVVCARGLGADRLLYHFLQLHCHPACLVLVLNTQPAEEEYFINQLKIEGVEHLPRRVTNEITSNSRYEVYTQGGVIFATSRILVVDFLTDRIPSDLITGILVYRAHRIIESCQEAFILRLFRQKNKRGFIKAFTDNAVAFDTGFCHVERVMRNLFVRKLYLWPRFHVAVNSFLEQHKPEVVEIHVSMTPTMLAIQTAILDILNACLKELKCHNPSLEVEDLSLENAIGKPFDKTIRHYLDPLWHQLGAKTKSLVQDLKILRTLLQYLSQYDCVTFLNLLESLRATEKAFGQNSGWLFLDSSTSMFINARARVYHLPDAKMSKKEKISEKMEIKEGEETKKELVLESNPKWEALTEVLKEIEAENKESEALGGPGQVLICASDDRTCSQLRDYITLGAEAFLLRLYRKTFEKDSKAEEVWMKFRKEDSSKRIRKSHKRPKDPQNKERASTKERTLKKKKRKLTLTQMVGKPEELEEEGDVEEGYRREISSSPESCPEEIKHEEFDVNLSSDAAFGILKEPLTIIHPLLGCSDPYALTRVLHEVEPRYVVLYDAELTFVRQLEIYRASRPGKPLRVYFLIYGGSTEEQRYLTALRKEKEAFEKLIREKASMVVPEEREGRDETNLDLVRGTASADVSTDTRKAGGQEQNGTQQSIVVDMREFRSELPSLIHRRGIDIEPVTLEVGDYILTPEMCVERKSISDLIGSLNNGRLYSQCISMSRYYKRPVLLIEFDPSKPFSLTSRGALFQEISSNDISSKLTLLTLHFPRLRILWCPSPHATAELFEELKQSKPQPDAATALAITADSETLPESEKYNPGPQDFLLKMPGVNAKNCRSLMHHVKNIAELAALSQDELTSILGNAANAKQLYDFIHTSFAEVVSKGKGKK
T1 sequence (P07992 whole entry, further chain): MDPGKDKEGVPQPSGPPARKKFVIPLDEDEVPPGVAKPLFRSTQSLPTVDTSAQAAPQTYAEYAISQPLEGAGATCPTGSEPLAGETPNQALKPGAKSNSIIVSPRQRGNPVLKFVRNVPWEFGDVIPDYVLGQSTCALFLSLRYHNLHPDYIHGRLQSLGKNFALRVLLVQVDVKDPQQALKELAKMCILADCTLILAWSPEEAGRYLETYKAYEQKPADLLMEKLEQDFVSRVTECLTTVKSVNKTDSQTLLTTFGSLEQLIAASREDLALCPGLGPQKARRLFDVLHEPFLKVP

## O=c1c(O)c(-c2cc(O)c(O)c(O)c2)oc2cc(O)cc(O)c12 [Myricetin]
  pIC50: ~6.82
